Experiments:
[1] = system: pNP-β-Glc activity of rose petal crude enzyme solution; test: Inhibition test for rose crude enzyme; type: biochemical, Rosa gybrida CV. Wendy
Method: (§1) β-Glucosidase inhibition test was performed as follows. 10 mM p-nitrophenyl-p-glucoside (100 μl, abbreviated as pNP-β-Glc hereinafter), 1 M sodium acetate buffer (pH 5.0, 50 μl), pure-water, and 100 mM inhibitor (10 μl) were taken into a short test tube so that the mixture should have a total volume of 800 μl, and preincubated at 40° C. for 5 minutes. After the incubation, the obtained mixture was added with 50 μl of enzyme solution diluted to a suitable concentration, and allowed to react at 40° C. After 10 minutes, the enzyme was inactivated by adding 500 μl of 1 M sodium carbonate to the obtained reaction mixture, and the absorbance at 405 nm was measured and used for calculation of the amount of free p-nitrophenol. As the inhibitor, cyclopropylmethyl-β-glucoside (CPAM-β-Glc), cyclopentyl-β-glucoside (CPE-β-Glc), and cyclopentylmethyl-β-glucoside (CPEM-β-Glc) all prepared by the methods of Examples 1 and 2 were used. As the β-glucosidase, chromatographically purified preparations derived from Aspergillus niger, Trichoderma viride, and Almond (all from SIGMA) were used.
Only petals (about 70 g) were collected from about ten marketed roses (variety; Rosa gybrida CV. Wendy), added with acetone (500 ml) cooled to −20° C., and pulverized by a homogenizer while cooled with dry ice. The obtained pulverized mixture was filtered through a Buchner funnel put with a No. 2 filter paper sheet, and sufficiently washed with acetone at −20° C. The obtained filtrate was dried in a desiccator under reduced pressure (room temperature, 3 hours) to obtain 6 g of crude enzyme powder. This powder was added to 100 mM sodium phosphate buffer (pH 7.0, 120 ml) and stirred at 4° C. for 3 hours, and the insoluble matter was removed by centrifugation. The filtrate was subjected to ultrafiltration utilizing an ultrafiltration membrane PM-10 (Amicon) to finally afford 15 ml of crude enzyme solution.
In the same manner as in Example 3, the inhibition activity of the CPEM-β-Glc obtained in Example 2 for the pNP-β-Glc activity of the above crude enzyme solution was measured. […]

[2] = target: β-glucosidase derived from Trichoderma viride (Trichoderma viride, UniProt Q6UJY0); test: β-Glucosidase inhibition test (pNP-β-Glc), T. viride enzyme; type: biochemical
Method: as §1

chrysanthemum cut flower = test: Aromatic substance formation inhibition effect in cut flowers, organoleptic test (chrysanthemum); type: in vivo; settings: 0.13% (w/v, 5 mM) aqueous solution, after one day, all of ten expert panelists, versus water
Method: (§2) A 0.13% (w/v, 5 mM) aqueous solution of the CPEM-β-Glc obtained in Example 2 was prepared. The obtained aqueous solution (300 ml) was introduced into an Erlenmeyer flask, and lily, chrysanthemum, and gypsophila were put into it one for each. On the other hand, as control, the flowers were similarly put into water without the CPEM-β-Glc. After 1, 2 and 4 days, organoleptic test was performed by ten expert panelists as for the aroma emitted from these cut flowers.

[3] = system: β-glucosidase derived from Almond; test: β-Glucosidase inhibition test (pNP-β-Glc), almond enzyme; type: biochemical; settings: inhibitor concentration of 1.25 mM
Method: as §1

[4] = system: lily, chrysanthemum, and gypsophila cut flowers; test: Freshness of cut flowers in the aroma test; type: in vivo; settings: 0.13% (w/v, 5 mM) aqueous solution
Method: as §2

lily cut flower = test: Aromatic substance formation inhibition effect in cut flowers, organoleptic test (lily); type: in vivo; settings: 0.13% (w/v, 5 mM) aqueous solution, after one day, all of ten expert panelists, versus water
Method: as §2

[5] = target: β-glucosidase derived from Aspergillus niger (Aspergillus niger, UniProt A2RAL4); test: β-Glucosidase inhibition test (pNP-β-Glc), A. niger enzyme; type: biochemical
Method: as §1

gypsophila cut flower = test: Aromatic substance formation inhibition effect in cut flowers, organoleptic test (gypsophila); type: in vivo; settings: 0.13% (w/v, 5 mM) aqueous solution, after one day, all of ten expert panelists, versus water
Method: as §2

OCC1OC(OCC2CCCC2)C(O)C(O)C1O (stereo not drawn) [CPEM-β-Glc, cyclopentylmethyl-β-glucoside]
inhibition activity ([1]; at 3 mM): about 50% | inhibition activity ([1]; at 4 mM): about 70% | inhibition activity ([1]; at 5 mM): about 90% | inhibition of β-glucosidase, in words ([2]; T. viride enzyme, inhibitor concentration of 1.25 mM): no inhibition | IC50 ([2]; T. viride β-glucosidase, concentration varied from 0 to 5 mM, read-out: 50% inhibition concentration): 11.5 mM | aroma emitted from cut flowers, organoleptic test (chrysanthemum cut flower): distinctly reduced | inhibition of β-glucosidase, in words [3]: strongly inhibited | freshness of the cut flowers, added versus not added [4]: No difference in freshness | aroma emitted from cut flowers, organoleptic test (lily cut flower): distinctly reduced | inhibition of β-glucosidase, in words ([5]; A. niger enzyme, inhibitor concentration of 1.25 mM): relatively weak inhibition | IC50 ([5]; A. niger β-glucosidase, concentration varied from 0 to 5 mM, read-out: 50% inhibition concentration): 12.6 mM | aroma emitted from cut flowers, organoleptic test (gypsophila cut flower): distinctly reduced

Source: patent US6372894B1, “Cycolalkylated B-glucoside” (Nihon Shokuhin Kako Co., Ltd., priority 1999, dated 2002)
